The record followed here is ChEMBL document CHEMBL1201862, “PubChem BioAssay data set” (2004).

Each structure is given as a SMILES string.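 48-hour exposure; five concentrations; linearly interpolated endpoints. At the GI50, growth is halved.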 Calls of active or inactive are those of the source. Cut-off read from the data, not from the text of the source: active = GI50 up to about 1.1 µM and inactive = higher.

Some test systems named below: A498; HCT-15; HL-60; HT-29; K562; LOX IMVI; M14; MOLT-4; Malme-3M; NCI-H226; NCI-H460; OVCAR-4; OVCAR-5; RXF 393; SF-539; SK-OV-3; SW-620; U-251; UACC-62; DU-145.
Holding throughout (assay): DTP human tumour cell line panel, 48 h

As for `[O-][S+]1c2ccccc2N=C(c2ccc(Cl)cc2)CC1c1cccs1` (stereo not drawn), the GI50 with A498 was 97.1 µM (inactive); with HCT-15 it was 15.5 µM; in the assay with HL-60 it was 14.2 µM (inactive); in the assay with HT-29, 17.3 µM (inactive); with K562, 9.25 µM (inactive); with LOX IMVI, 12.6 µM (inactive). Besides, the GI50 is 15.5 µM (inactive) in the assay on M14; 26 µM (inactive) with MOLT-4; 57.8 µM (inactive) in the assay with Malme-3M; 90.4 µM (inactive) in the assay on NCI-H226; 36.8 µM (inactive) in the assay with NCI-H460; 11 µM (inactive) with OVCAR-4. The GI50 was 16.7 µM (inactive) with OVCAR-5; 14.4 µM (inactive) with RXF 393; 16.7 µM (inactive) with SF-539; 28.9 µM (inactive) with SK-OV-3; 14.4 µM (inactive) in the assay on SW-620; 15.5 µM (inactive) in the assay on U-251. In the assay with UACC-62, the GI50 is 15.7 µM (inactive).

For the compound `COc1ccc(OC)c2sc(N3C(=O)/C(=C/c4ccc(N(C)C)cc4)N=C3c3ccccc3)nc12`, the GI50 is 87.7 µM (inactive) with A498; > 100 µM (inactive) with DU-145; 59.2 µM in the assay on HCT-15; 20.9 µM (inactive) in the assay on HL-60; 61.8 µM (inactive) with HT-29; 79.8 µM (inactive) in the assay with K562. For the same compound, the GI50 with LOX IMVI was 41 µM (inactive); in the assay with M14, 99.3 µM (inactive); in the assay with MOLT-4, 15.5 µM (inactive); in the assay with NCI-H460, 92.9 µM (inactive); in the assay on OVCAR-4 it was > 100 µM (inactive); in the assay with OVCAR-5, > 100 µM (inactive). Also, the GI50 is 98.2 µM (inactive) in the assay on SF-539; > 100 µM (inactive) in the assay on SK-OV-3; 49.8 µM (inactive) in the assay with SW-620; 44.1 µM (inactive) in the assay with U-251; 28.3 µM (inactive) in the assay on UACC-62.

For `Brc1nc2c3ccccc3ncn2c1Br`, the GI50 is 43.5 µM (inactive) in the assay on A498; 35.3 µM in the assay on HCT-15; 22.5 µM (inactive) with HL-60; 29.3 µM (inactive) in the assay with HT-29; 31.3 µM (inactive) with K562; 19 µM (inactive) in the assay with LOX IMVI. Further, the GI50 in the assay with M14 is 38.5 µM (inactive); with MOLT-4 it was 25.3 µM (inactive); in the assay on Malme-3M, 13.3 µM (inactive); in the assay with NCI-H226, 26.4 µM (inactive); in the assay with NCI-H460, 34.2 µM (inactive); with OVCAR-4, 16 µM (inactive). Also, the GI50 with OVCAR-5 is 64.9 µM (inactive); with RXF 393, 35.6 µM (inactive); in the assay on SF-539, 49.9 µM (inactive); in the assay with SK-OV-3, 38.5 µM (inactive); in the assay with SW-620, 36.6 µM (inactive); in the assay with U-251 it was 28.8 µM (inactive). Also, the GI50 with UACC-62 is 16.4 µM (inactive).

With `O=C1CC2C(=O)N(Cc3ccccc3)C1C(S(=O)(=O)c1ccccc1)C2S(=O)(=O)c1ccccc1` (stereo not drawn), the GI50 was 18.3 µM (inactive) with A498; 1.32 µM with HCT-15; 1.62 µM (inactive) in the assay with HL-60; 2.17 µM (inactive) in the assay on HT-29; 2.09 µM (inactive) with K562; 1.68 µM (inactive) in the assay on LOX IMVI. In addition, the GI50 in the assay with M14 was 1.92 µM (inactive); in the assay with MOLT-4, 2.55 µM (inactive); with Malme-3M it was 2 µM (inactive); with NCI-H226, 13.3 µM (inactive); in the assay with NCI-H460 it was 17.7 µM (inactive); in the assay on OVCAR-4, 2.08 µM (inactive). For the same compound, the GI50 with OVCAR-5 is 18 µM (inactive); in the assay on RXF 393, 1.83 µM (inactive); with SF-539 it was 2.05 µM (inactive); with SK-OV-3, 17.6 µM (inactive); in the assay with SW-620, 0.528 µM (active); with U-251, 2.92 µM (inactive). Further, in the assay on UACC-62, the GI50 is 1.84 µM (inactive).

Consider `O=C1/C(=N\O)c2ccccc2S1(=O)=O`, for which the GI50 with A498 was 39.7 µM (inactive); with HCT-15, above 100 µM; with HL-60, 25.2 µM (inactive); with HT-29 it was > 100 µM (inactive); in the assay with K562, > 100 µM (inactive); in the assay on LOX IMVI, > 100 µM (inactive). Further, the GI50 is > 100 µM (inactive) in the assay with M14; > 100 µM (inactive) in the assay on MOLT-4; 55.3 µM (inactive) in the assay on Malme-3M; 19.4 µM (inactive) in the assay on NCI-H226; > 100 µM (inactive) in the assay on NCI-H460; > 100 µM (inactive) in the assay on OVCAR-4. In addition, the GI50 in the assay with OVCAR-5, in the assay on RXF 393, in the assay with SF-539, in the assay with SK-OV-3, in the assay on SW-620 and in the assay with U-251 was > 100 µM (inactive) throughout. The GI50 in the assay with UACC-62 is 95.9 µM (inactive).

On to `Cc1cccc(C)c1NC(=O)CCc1nnc2s/c(=C\c3ccc(N(C)C)cc3)c(=O)n12`, for which the GI50 with A498 is > 100 µM (inactive); in the assay on HCT-15 it was above 100 µM; with HL-60, 68.1 µM (inactive); with HT-29, > 100 µM (inactive); with K562, 53.3 µM (inactive); in the assay on LOX IMVI, > 100 µM (inactive). Further, the GI50 is > 100 µM (inactive) with M14; 53.3 µM (inactive) in the assay on MOLT-4; > 100 µM (inactive) in the assay on Malme-3M; > 100 µM (inactive) in the assay with NCI-H226; > 100 µM (inactive) in the assay with NCI-H460; > 100 µM (inactive) in the assay with OVCAR-4. Also, the GI50 in the assay on OVCAR-5 is > 100 µM (inactive); in the assay on RXF 393 it was 69.2 µM (inactive); with SF-539, > 100 µM (inactive); in the assay with SK-OV-3, > 100 µM (inactive); with SW-620 it was > 100 µM (inactive); with U-251 it was > 100 µM (inactive). For the same compound, the GI50 in the assay with UACC-62 was > 100 µM (inactive).

Take `CCOC(=O)C(=C=C=C(c1ccccc1)c1ccccc1)C(=O)OCC`: the GI50 in the assay with A498 is 48.4 µM (inactive); in the assay on HCT-15 it was 19.6 µM; in the assay with HL-60, 15.4 µM (inactive); in the assay with HT-29 it was 19.4 µM (inactive); in the assay on K562, 11.3 µM (inactive); in the assay on LOX IMVI, 17.1 µM (inactive). The GI50 with M14 is 20.6 µM (inactive); with MOLT-4, 9.08 µM (inactive); in the assay with Malme-3M, 19.8 µM (inactive); with NCI-H226, 15.5 µM (inactive); in the assay with NCI-H460 it was 22.8 µM (inactive); with OVCAR-4, 18.3 µM (inactive). In addition, the GI50 in the assay with OVCAR-5 was 18.1 µM (inactive); in the assay with RXF 393, 10.7 µM (inactive); in the assay with SF-539, 18.4 µM (inactive); in the assay with SK-OV-3, 23.2 µM (inactive); with SW-620, 21.5 µM (inactive); with U-251 it was 17.3 µM (inactive). Besides, the GI50 in the assay on UACC-62 was 18.5 µM (inactive).

`CCCCS(=O)(=O)Nc1ccc(Nc2c3ccccc3nc3ccccc23)c(OC)c1`: the GI50 is 2.05 µM (inactive) in the assay with A498; 1.71 µM with HCT-15; 0.183 µM (active) in the assay on HL-60; 1.67 µM (inactive) in the assay with HT-29; 2.51 µM (inactive) in the assay with K562; 1.26 µM (inactive) in the assay with LOX IMVI. Moreover, the GI50 is 0.0718 µM (active) in the assay with MOLT-4; 2.21 µM (inactive) with Malme-3M; 0.881 µM (active) with NCI-H226; 0.0863 µM (active) in the assay with NCI-H460; 5.6 µM (inactive) in the assay with OVCAR-4; 13.7 µM (inactive) in the assay with OVCAR-5. The GI50 with RXF 393 is 4.39 µM (inactive); with SF-539 it was 1.08 µM (active); in the assay with SK-OV-3 it was 5.07 µM (inactive); with SW-620 it was 0.675 µM (active); in the assay with U-251, 0.773 µM (active); with UACC-62, 1.78 µM (inactive).

Consider `CC1=C(C(=O)Nc2ccc(Cl)c(Cl)c2)C(c2ccc([N+](=O)[O-])cc2)C(C(=O)Nc2ccc(Cl)c(Cl)c2)=C(C)N1`, for which the GI50 with A498 is 3.32 µM (inactive); with HCT-15, 2.6 µM; in the assay on HL-60, 0.361 µM (active); in the assay with HT-29 it was 2.42 µM (inactive); in the assay with K562, 1.07 µM (active); with LOX IMVI, 2.06 µM (inactive). Moreover, the GI50 was 1.85 µM (inactive) with M14; 0.223 µM (active) in the assay with MOLT-4; 2.57 µM (inactive) in the assay with Malme-3M; 3.88 µM (inactive) in the assay on NCI-H226; 2.41 µM (inactive) with NCI-H460; 2.64 µM (inactive) in the assay on OVCAR-4. Also, the GI50 with OVCAR-5 was 3.23 µM (inactive); with RXF 393, 1.78 µM (inactive); in the assay on SF-539, 3.13 µM (inactive); in the assay on SK-OV-3, 4.31 µM (inactive); in the assay on SW-620, 3.05 µM (inactive); with U-251, 2.49 µM (inactive). For the same compound, in the assay on UACC-62, the GI50 was 1.7 µM (inactive).

With `O=C(O)CSC(CC1(c2ccc(Cl)cc2)NC(=O)CS1)c1ccc(Cl)cc1` (stereo not drawn), the GI50 in the assay with A498 is > 100 µM (inactive); in the assay with DU-145, > 100 µM (inactive); with HCT-15 it was above 100 µM; with HL-60, > 100 µM (inactive); with HT-29 it was > 100 µM (inactive); with K562, > 100 µM (inactive). In addition, the GI50 is > 100 µM (inactive) with LOX IMVI; > 100 µM (inactive) in the assay on M14; > 100 µM (inactive) in the assay on MOLT-4; 85.5 µM (inactive) in the assay on NCI-H460; > 100 µM (inactive) in the assay with OVCAR-4; > 100 µM (inactive) in the assay on OVCAR-5. For the same compound, the GI50 in the assay on SF-539 was > 100 µM (inactive); with SK-OV-3, > 100 µM (inactive); with SW-620, > 100 µM (inactive); in the assay with U-251, 89.7 µM (inactive); in the assay with UACC-62 it was 85.1 µM (inactive).

`CC(=O)O[C@H]1C=CC(=O)C(C)CC1C` (stereo partly drawn): the GI50 in the assay on A498 was > 100 µM (inactive); with HL-60, 64.9 µM (inactive); in the assay with HT-29, > 100 µM (inactive); in the assay on K562, > 100 µM (inactive); with LOX IMVI, 45.8 µM (inactive); in the assay on M14, > 100 µM (inactive). Moreover, the GI50 in the assay with MOLT-4, in the assay on Malme-3M, in the assay with NCI-H226, with NCI-H460, in the assay on OVCAR-4 and with OVCAR-5 was > 100 µM (inactive) each time. Moreover, the GI50 in the assay with RXF 393 is 42.6 µM (inactive); with SF-539, > 100 µM (inactive); in the assay with SK-OV-3, > 100 µM (inactive); in the assay on SW-620, 73.5 µM (inactive); with U-251, > 100 µM (inactive); in the assay with UACC-62, > 100 µM (inactive).

Usually GI50 stands for the concentration giving 50% growth inhibition.
